Measurements: ChEMBL document CHEMBL1201862, “PubChem BioAssay data set” (2004)
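Compound exposure: 48 hours, 5 concentrations, 96-well plates. GI50 = concentration required for 50% inhibition of growth.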 Activity calls are given as the source filed them. Cut-off read from the data, not from the text of the source: active = GI50 up to about 1.1 µM and inactive = higher.

Tests used:
Assay in all cases: DTP human tumour cell line panel, 48 h
M19-MEL = test system: M19-MEL
DMS-114 = test system: DMS-114
SNB-78 = test system: SNB-78
LXFL 529 = test system: LXFL 529
XF498 = test system: XF498
KM-20L2 = test system: KM-20L2
HOP-18 = test system: HOP-18
DMS-273 = test system: DMS-273
RXF 631 = test system: RXF 631

Measured: GI50

O=C(/C=C/c1ccccc1F)c1ccc(Cl)c(Cl)c1
inactive: M19-MEL 24 µM | DMS-114 24 µM | SNB-78 > 69.3 µM | LXFL 529 18.3 µM | XF498 28.5 µM | KM-20L2 36.3 µM | HOP-18 16.4 µM | DMS-273 35.1 µM | RXF 631 > 53.7 µM
